Assays:
[1] = cited from earlier work
[2] = test system: HIV aspartyl protease; conditions: cited from earlier work
[3] = Storage stability of Form A: polymorph by PXRD; assay type: physicochemical
[4] = Storage stability of Form A: HPLC purity
Experimental: In yet another embodiment, physical and chemical stability of Fosamprenavir calcium Form A was determined by storing the samples at 40° C./75% relative humidity (RH), at 25° C./60% RH and at 5° C. for 6 months. The material was analyzed by PXRD, water content by Karl Fischer and HPLC for final purity.

[5] = Transformation kinetics: slurry in solvents, PXRD; assay type: physicochemical; conditions: 25-30° C., 15 h
Source text: The solid samples were characterized by PXRD.

[6] = Physical stability under drying (vacuum) and 90% RH, PXRD
Experimental: The said formic acid solvate of the present invention is characterized by their X-ray powder diffraction pattern. Thus, the X-ray diffraction patterns of said polymorphs of the invention were measured on Bruker AXS D8 Discover powder X-ray diffractometer equipped with a goniometer of θ/2θ configuration, Variol monochromator and Lynx-Eye detector. The Cu-anode X-ray tube was operated at 40 kV and 30 mA. The experiments were conducted over the 2θ range of 2.0°-50.0°, 0.030° step size and 25 seconds step time.
In yet another embodiment, the physical stability of Fosamprenavir calcium Form A was determined by storing 1.0 g of sample at 50° C. and 80° C. under vacuum and at 90% relative humidity (RH). The samples are tested by PXRD after 15 hours and 72 hours. […] Transformation kinetics of Form A was studied by suspending 1 g of Form A in appropriate solvents at 25-30° C. for 15 hours. The solid samples were characterized by PXRD.

[7] = Storage stability of Form A: water content by Karl Fischer; assay type: physicochemical
Experimental: Water content was determined on Metrohm karl-Fischer titrator (Model: 794 Basic Titrino) using pyridine free single solution (Merck, Mumbai) with sample mass between 450-550 mg.

[8] = stored for 6 months at the stress conditions of table 1

**Q.** Which Solubility [1] does the source give for `CC(C)CN(C[C@@H](O)[C@H](Cc1ccccc1)NC(=O)O[C@H]1CCOC1)S(=O)(=O)c1ccc(N)cc1` (relative stereo) [Amprenavir, [3S-[3R*(1R*,2S*)]]-[3-[[(4-aminophenyl)sulfonyl](2-methyl-propyl)amino]-2-hydroxy-1-phenylmethyl)propyl]-tetrahydro-3-furanyl ester] here?
**A.** Its Solubility is “poor solubility”.

**Q.** What does the source list for `CC(C)CN(C[C@@H](OP(=O)([O-])[O-])[C@H](Cc1ccccc1)NC(=O)O[C@H]1CCOC1)S(=O)(=O)c1ccc(N)cc1.[Ca+2]` [Fosamprenavir Calcium, Calcium (3S) tetrahydro-3-furanyl (1S,2R)-3-[[(4-aminophenyl)sulfonyl](isobutyl)amino]-1-benzyl-2-(phosphonooxy)propylcarbamate]?
**A.** HIV aspartyl protease inhibitory activity [2]: has HIV aspartyl protease inhibitory activity; Solubility compared to amprenavir ([1]; pH range of the gastro-intestinal tract): increased solubility

**Q.** Which results are given for `CC(C)CN(C[C@@H](OP(=O)([O-])[O-])[C@H](Cc1ccccc1)NC(=O)O[C@H]1CCOC1)S(=O)(=O)c1ccc(N)cc1.[Ca+2]` [Fosamprenavir calcium Form A, Calcium (3S) tetrahydro-3-furanyl (1S,2R)-3-[[(4-aminophenyl)sulfonyl](isobutyl)amino]-1-benzyl-2-(phosphonooxy)propylcarbamate]?
**A.** PXRD ([3]; at 5° C., 1st Month): Form A; PXRD ([3]; at 5° C., 2nd Month): Form A; PXRD ([3]; at 5° C., 3rd Month): Form A; PXRD ([3]; at 5° C., 6th Month): Form A; PXRD ([3]; at 5° C., 15 days): Form A; PXRD ([3]; at 5° C., Initial): Form A; PXRD ([3]; at 25° C./60% RH, 1st Month): Form A; PXRD ([3]; at 25° C./60% RH, 2nd Month): Form A; PXRD ([3]; at 25° C./60% RH, 3rd Month): Form A; PXRD ([3]; at 25° C./60% RH, 6th Month): Form A; PXRD ([3]; at 25° C./60% RH, 15 days): Form A; PXRD ([3]; at 25° C./60% RH, Initial): Form A; PXRD ([3]; at 40° C./75% RH, 1st Month): Form A; PXRD ([3]; at 40° C./75% RH, 2nd Month): Form A; PXRD ([3]; at 40° C./75% RH, 3rd Month): Form A; PXRD ([3]; at 40° C./75% RH, 6th Month): Form A; PXRD ([3]; at 40° C./75% RH, 15 days): Form A; PXRD ([3]; at 40° C./75% RH, Initial): Form A; Change in PXRD pattern on storage [3, 8]: no change in PXRD pattern; HPLC purity (%) ([4]; at 5° C., 1st Month): 99.85%; HPLC purity (%) ([4]; at 5° C., 2nd Month): 99.86%; HPLC purity (%) ([4]; at 5° C., 3rd Month): 99.86%; HPLC purity (%) ([4]; at 5° C., 6th Month): 99.86%; HPLC purity (%) ([4]; at 5° C., 15 days): 99.85%; HPLC purity (%) ([4]; at 5° C., Initial): 99.85%; HPLC purity (%) ([4]; at 25° C./60% RH, 1st Month): 99.85%; HPLC purity (%) ([4]; at 25° C./60% RH, 2nd Month): 99.86%; HPLC purity (%) ([4]; at 25° C./60% RH, 3rd Month): 99.87%; HPLC purity (%) ([4]; at 25° C./60% RH, 6th Month): 99.85%; HPLC purity (%) ([4]; at 25° C./60% RH, 15 days): 99.85%; HPLC purity (%) ([4]; at 25° C./60% RH, Initial): 99.85%; HPLC purity (%) ([4]; at 40° C./75% RH, 1st Month): 99.85%; HPLC purity (%) ([4]; at 40° C./75% RH, 2nd Month): 99.85%; HPLC purity (%) ([4]; at 40° C./75% RH, 3rd Month): 99.86%; HPLC purity (%) ([4]; at 40° C./75% RH, 6th Month): 99.86%; HPLC purity (%) ([4]; at 40° C./75% RH, 15 days): 99.84%; HPLC purity (%) ([4]; at 40° C./75% RH, Initial): 99.85%; Degradation on storage [4, 8]: no significant degradation; Result (polymorph by PXRD) ([5]; Slurry in IPE): Form A; Result (polymorph by PXRD) ([5]; Slurry in acetone): Form A; Result (polymorph by PXRD) ([5]; Slurry in ethyl acetate): Form A; Result (polymorph by PXRD) ([5]; Slurry in n-Heptane): Form A; Change in polymorph ([6]; 50° C. and 80° C. under vacuum and 90% RH, after 15 hours and 72 hours): no change in polymorph; Result (polymorph by PXRD) ([6]; 90% RH, 15 h): Form A; Result (polymorph by PXRD) ([6]; 90% RH, 72 h): Form A; Result (polymorph by PXRD) ([6]; Drying at 50° C. under vacuum, 15 h): Form A; Result (polymorph by PXRD) ([6]; Drying at 50° C. under vacuum, 72 h): Form A; Result (polymorph by PXRD) ([6]; Drying at 80° C. under vacuum, 15 h): Form A; Result (polymorph by PXRD) ([6]; Drying at 80° C. under vacuum, 72 h): Form A; Physical stability ([6]; different stress conditions (Table 2)): physically stable; Water content (% w/w) ([7]; at 5° C., 1st Month): 3.5 % w/w; Water content (% w/w) ([7]; at 5° C., 2nd Month): 4.4 % w/w; Water content (% w/w) ([7]; at 5° C., 3rd Month): 4.0 % w/w; Water content (% w/w) ([7]; at 5° C., 6th Month): 3.5 % w/w; Water content (% w/w) ([7]; at 5° C., 15 days): 3.6 % w/w; Water content (% w/w) ([7]; at 5° C., Initial): 4.2 % w/w; Water content (% w/w) ([7]; at 25° C./60% RH, 1st Month): 3.6 % w/w; Water content (% w/w) ([7]; at 25° C./60% RH, 2nd Month): 3.7 % w/w; Water content (% w/w) ([7]; at 25° C./60% RH, 3rd Month): 3.9 % w/w; Water content (% w/w) ([7]; at 25° C./60% RH, 6th Month): 3.5 % w/w; Water content (% w/w) ([7]; at 25° C./60% RH, 15 days): 3.7 % w/w; Water content (% w/w) ([7]; at 25° C./60% RH, Initial): 4.2 % w/w; Water content (% w/w) ([7]; at 40° C./75% RH, 1st Month): 3.5 % w/w; Water content (% w/w) ([7]; at 40° C./75% RH, 2nd Month): 3.9 % w/w; Water content (% w/w) ([7]; at 40° C./75% RH, 3rd Month): 3.8 % w/w; Water content (% w/w) ([7]; at 40° C./75% RH, 6th Month): 3.0 % w/w; Water content (% w/w) ([7]; at 40° C./75% RH, 15 days): 3.5 % w/w; Water content (% w/w) ([7]; at 40° C./75% RH, Initial): 4.2 % w/w; Change in moisture content on storage [7, 8]: no substantial increase in moisture content

Reference: patent publication US8993786B2, “Crystalline fosamprenavir calcium and process for the preparation thereof” (Mylan Laboratories Ltd., priority 2011, dated 2015)
